One data set concerns the target CTX-M-14 (Escherichia coli, UniProt Q9L5C7). Description: Inhibition of nitrocefin cleavage by purified CTX-M-14. In kind it is biochemical. As to conditions: nitrocefin reporter substrate; 10 min preincubation at room temperature; read-out: Ki (CTX-M-14, NCF). The method, then: (§1) Ki values of inhibition of purified class A, C and D enzymes were determined spectrophotometrically using nitrocefin as reporter substrate. Purified enzymes were mixed with various concentrations of inhibitors in reaction buffer and incubated for 10 min at room temperature. Nitrocefin was added and substrate cleavage profiles were recorded at 490 nm every 10 sec for 10 min.

The next data set has as its target SHV-12 (Klebsiella pneumoniae, UniProt P0AD64, E235K/G234S/L31Q). Put plainly: Inhibition of nitrocefin cleavage by purified SHV-12. The conditions noted are these: nitrocefin reporter substrate; 10 min preincubation at room temperature; read-out: Ki (SHV-12, NCF). In kind it is biochemical. The method, then:
as §1

For a further data set, the target named is KPC-2 (Klebsiella pneumoniae, UniProt Q9F663). Description: Inhibition of nitrocefin cleavage by purified KPC-2. In kind it is biochemical. As to conditions: nitrocefin reporter substrate; 10 min preincubation at room temperature; read-out: Ki (KPC-2, NCF). In short, it runs like this: (§2)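 Purified enzyme was preincubated with inhibitor at a range of concentrations in reaction buffer for 10 min at room temperature. Nitrocefin was then added as reporter substrate and its cleavage followed at 490 nm every 10 sec over 10 min; Ki was derived spectrophotometrically.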
Chain of KPC-2 (Q9F663 25-293 limits assumed): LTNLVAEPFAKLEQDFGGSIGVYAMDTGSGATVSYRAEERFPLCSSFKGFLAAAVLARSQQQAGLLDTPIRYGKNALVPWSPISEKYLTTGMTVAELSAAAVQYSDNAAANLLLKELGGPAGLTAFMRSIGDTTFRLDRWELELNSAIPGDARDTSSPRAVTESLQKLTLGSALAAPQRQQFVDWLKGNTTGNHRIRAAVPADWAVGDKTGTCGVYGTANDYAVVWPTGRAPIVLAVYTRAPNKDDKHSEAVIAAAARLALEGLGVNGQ

A further data set concerns the target P99 (Enterobacter cloacae, UniProt P05364). Description: biochemical. The conditions noted are these: nitrocefin reporter substrate; 10 min preincubation at room temperature; read-out: Ki (P99, NCF). Here is the method:
as §1

For the next data set, the target named is Pa-AmpC (Pseudomonas aeruginosa, UniProt P24735). Description: biochemical. The conditions noted are these: nitrocefin reporter substrate; 10 min preincubation at room temperature; read-out: Ki (Pa-AmpC, NCF). Here is the method:
as §1

The next data set deals with OXA-48 (Klebsiella pneumoniae, UniProt Q6XEC0). Put plainly: Inhibition of nitrocefin cleavage by purified OXA-48. In kind it is biochemical. As to conditions: nitrocefin reporter substrate; 10 min preincubation at room temperature; read-out: Ki (OXA-48, NCF). In short, it runs like this: as §2
Chain of OXA-48 (Q6XEC0 23-265, looked up): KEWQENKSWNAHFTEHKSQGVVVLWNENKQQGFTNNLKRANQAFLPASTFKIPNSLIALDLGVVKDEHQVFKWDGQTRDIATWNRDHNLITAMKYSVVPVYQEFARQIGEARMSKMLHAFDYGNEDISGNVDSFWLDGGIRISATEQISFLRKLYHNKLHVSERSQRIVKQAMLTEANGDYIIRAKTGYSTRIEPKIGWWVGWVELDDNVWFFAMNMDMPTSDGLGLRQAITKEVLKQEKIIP
The target in another data set is OXA-23 (Acinetobacter baumannii, UniProt Q9L4P2). Put plainly: Inhibition of nitrocefin cleavage by purified OXA-23. It counts as biochemical. The conditions noted are these: nitrocefin reporter substrate; 10 min preincubation at room temperature; read-out: Ki (OXA-23, NCF). In short, it runs like this:
as §2

A further data set deals with VIM-1 (Pseudomonas aeruginosa, UniProt A0A0F7KYQ8). Description: Inhibition of nitrocefin cleavage by purified VIM-1. It counts as biochemical. The conditions noted are these: nitrocefin reporter substrate; 10 min preincubation at room temperature; read-out: Ki (VIM-1, NCF).
Another data set concerns the target NDM-1 (Klebsiella pneumoniae, UniProt C7C422). Put plainly: Inhibition of imipenem cleavage by purified NDM-1. As to conditions: imipenem reporter substrate; 37° C.; read-out: Ki (NDM-1, IMI). In kind it is biochemical. Here is the method:
Purified enzymes were mixed with various concentrations of inhibitors in reaction buffer and incubated for 10 min at room temperature. Imipenem was added and substrate cleavage profiles were recorded at 294 nm every 30 seconds for 30 minutes at 37° C.

A further data set concerns the target IMP-1 (Serratia marcescens, UniProt P52699). Put plainly: Inhibition of imipenem cleavage by purified IMP-1. In kind it is biochemical. As to conditions: imipenem reporter substrate; 37° C.; read-out: Ki (IMP-1, IMI). In short, it runs like this:
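Purified enzymes preincubated with varying inhibitor concentrations for 10 min at room temperature, then imipenem added as reporter substrate. Hydrolysis followed spectrophotometrically at 294 nm every 30 s for 30 min at 37° C; Ki values derived.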

Data set [1] deals with PAM1032/KPC-2 (overexpressed MexAB-OprM). Put plainly: Biapenem potentiation (MPC64) in PAM1032/KPC-2. In kind it is cell-based, Pseudomonas aeruginosa. On the set-up: PAM1032/KPC-2 Biapenem MPC64: unit not given here. The conditions noted are these: BLI potency to decrease biapenem MIC 64-fold, from 32 to 0.5 μg/ml; efflux proficient strain. The gist of the method: (§3)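 KPC-2 plasmid-expressing P. aeruginosa strains were used to measure BLI potentiation of biapenem as MPC64. The PAM1032/KPC-2 to PAM1154/KPC-2 MPC64 ratio gave the Efflux Index.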

Data set [2] deals with PAM1154/KPC-2 (lacked MexAB-OprM). Description: Biapenem potentiation (MPC64) in PAM1154/KPC-2. The conditions noted are these: BLI potency to decrease biapenem MIC 64-fold, from 32 to 0.5 μg/ml; efflux deficient strain. On the set-up: PAM1154/KPC-2 Biapenem MPC64: unit not given here. It counts as cell-based, Pseudomonas aeruginosa. The gist of the method:
as §3

Data set [3] in a line: Stability of compound 13 prodrugs in human serum. In kind it is in vitro ADME. The conditions noted are these: 37° C., prodrug 50.0 μg/mL. The method, then:
The rate of hydrolysis for several prodrugs of 13 was evaluated in vitro by measuring their stability in human serum and human liver microsomes. All serum stability experiments were conducted by aliquoting 10 μL of test compound at 500 μg/mL (10× final concentration) in 95:5 water:acetonitrile v/v into 1.5 mL Eppendorf tubes. […] The tubes were then warmed to 37° C. in a water bath along with human serum (Bioreclamations) in a separate tube. Serum esterase activity for each lot of serum used was established by assaying an unrelated ester prodrug as a control. To initiate the reaction, 90 μL of serum was added to tubes for all timepoints using a repeating-tip pipette, thereby bringing the final concentration of test compound to 50 μg/mL and the final concentration of acetonitrile to 0.5% v/v. At each timepoint, the reaction was halted and serum proteins precipitated through the addition of an equal volume of cold acetonitrile containing 25 μg/mL diclofenac as an internal standard. […] Sample analysis for serum stability experiments was conducted using an Agilent 1100 binary pump HPLC equipped with a diode array detector set to monitor absorbance at 286 nm (8 nm bandwidth). […] The samples were analyzed together with appropriate blanks in order to ensure specificity. […] The rate of activation was determined by monitoring the concentration of test compound as follows. The peak area for the analyte was divided by the peak area for the internal standard to give an area ratio. The area ratio for each timepoint was divided by the area ratio for timepoint 0 to give the percent remaining at each timepoint. The natural logarithm of the percent remaining versus time was plotted using Microsoft Excel and fitted to a linear trendline.

Data set [4] in a line: Stability of compound 13 prodrugs in human liver microsomes (HLM). In kind it is in vitro ADME. As to conditions: 0.500 mg/mL human liver microsomes, no cofactors, prodrug 1.00 μM; for half-life at 1 μM: pH 7.4, read-out: Estimated half-life (minutes) (rounded to nearest integer value). Here is the method:
In the meantime, a 20.0 mg/mL solution of human liver microsomes (XenoTech, LLC) was diluted to 1.00 mg/mL (2× final concentration). Esterase activity for each lot of microsomes used was established by assaying an unrelated ester prodrug as a control. Both the Eppendorfs for each timepoint and the diluted liver microsomes were then warmed to 37° C. in a water bath. No cofactors (e.g. NADPH) were added to ensure that only hydrolytic reactions as opposed to reactions mediated by other cofactor-dependent enzymes (e.g. CYP450 enzymes) would take place. To initiate the reaction, 50 μL of diluted human liver microsomes was added to tubes for all timepoints using a repeating-tip pipette, thereby bringing the final concentration of test compound to 1.00 μM and the final concentration of human liver microsomes to 0.500 mg/mL. At each timepoint, the reaction was halted and proteins precipitated through the addition of 200 μL of 10:45:45 water:methanol:acetonitrile v/v/v containing an unrelated ester prodrug at 250 ng/mL as an internal standard. […] Sample analysis for microsome stability experiments was conducted using a 20.0 μL injection on a LEAP PAL autosampler with Agilent 1100 binary pump HPLC coupled to an AB Sciex 3200 QTrap mass spectrometer. […] Detection was in positive mode; source parameters and parent-daughter ion selection criteria were chosen as needed for each compound to achieve an appropriate limit of detection and signal-to-noise ratio. The samples were analyzed together with appropriate blanks in order to ensure specificity. The rate of hydrolysis for each prodrug was determined by monitoring the concentration of test compound as follows. The peak area for the analyte was divided by the peak area for the internal standard to give an area ratio. The area ratio for each of the two replicates at each timepoint was divided by the area ratio for timepoint 0 to give the percent remaining at each timepoint. The natural logarithm of the percent remaining versus time for all replicates was plotted using Microsoft Excel and fitted to a linear trendline.

We go through seven compounds from patent publication US11999759B2, “Boronic acid derivatives and therapeutic uses thereof” (Qpex Biopharma, Inc., priority 2016, dated 2024).

Chain of Pa-AmpC (P24735 27-397): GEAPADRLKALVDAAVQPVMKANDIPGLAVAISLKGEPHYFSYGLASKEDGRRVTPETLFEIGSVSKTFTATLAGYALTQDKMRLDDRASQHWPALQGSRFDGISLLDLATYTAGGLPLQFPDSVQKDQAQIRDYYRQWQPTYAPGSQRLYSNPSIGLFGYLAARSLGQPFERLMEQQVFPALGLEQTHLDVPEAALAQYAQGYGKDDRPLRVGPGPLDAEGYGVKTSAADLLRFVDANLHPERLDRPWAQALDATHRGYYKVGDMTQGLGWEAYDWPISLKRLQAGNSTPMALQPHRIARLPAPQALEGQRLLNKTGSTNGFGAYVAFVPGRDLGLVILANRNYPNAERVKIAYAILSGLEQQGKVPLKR
Chain of NDM-1 (C7C422 29-270, looked up, species assumed): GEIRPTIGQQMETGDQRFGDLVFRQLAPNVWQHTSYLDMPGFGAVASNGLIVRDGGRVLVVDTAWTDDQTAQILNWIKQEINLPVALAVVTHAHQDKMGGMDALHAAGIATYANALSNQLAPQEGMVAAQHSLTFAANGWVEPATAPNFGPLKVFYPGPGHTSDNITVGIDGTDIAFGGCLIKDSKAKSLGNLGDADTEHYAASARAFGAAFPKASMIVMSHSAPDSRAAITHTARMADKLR
Chain of P99 (P05364 21-381): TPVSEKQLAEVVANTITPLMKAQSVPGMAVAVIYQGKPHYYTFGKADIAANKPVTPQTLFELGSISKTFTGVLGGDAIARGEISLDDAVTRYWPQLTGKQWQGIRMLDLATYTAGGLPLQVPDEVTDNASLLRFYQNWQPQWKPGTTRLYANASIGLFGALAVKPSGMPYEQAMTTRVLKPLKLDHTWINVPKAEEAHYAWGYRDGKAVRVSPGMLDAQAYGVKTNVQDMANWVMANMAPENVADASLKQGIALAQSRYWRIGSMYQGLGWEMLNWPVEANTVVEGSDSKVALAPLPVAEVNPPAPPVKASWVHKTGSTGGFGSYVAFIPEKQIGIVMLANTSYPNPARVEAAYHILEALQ
Chain of OXA-23 (Q9L4P2 18-273): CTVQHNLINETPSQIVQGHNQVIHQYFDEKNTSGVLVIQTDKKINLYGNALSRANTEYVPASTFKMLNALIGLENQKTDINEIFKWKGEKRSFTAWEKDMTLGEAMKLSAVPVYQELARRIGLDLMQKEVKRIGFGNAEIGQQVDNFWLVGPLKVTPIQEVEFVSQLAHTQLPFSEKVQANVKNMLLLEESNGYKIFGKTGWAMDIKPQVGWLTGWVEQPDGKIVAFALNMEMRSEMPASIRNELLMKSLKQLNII
Chain of IMP-1 (P52699 19-246, looked up, species assumed): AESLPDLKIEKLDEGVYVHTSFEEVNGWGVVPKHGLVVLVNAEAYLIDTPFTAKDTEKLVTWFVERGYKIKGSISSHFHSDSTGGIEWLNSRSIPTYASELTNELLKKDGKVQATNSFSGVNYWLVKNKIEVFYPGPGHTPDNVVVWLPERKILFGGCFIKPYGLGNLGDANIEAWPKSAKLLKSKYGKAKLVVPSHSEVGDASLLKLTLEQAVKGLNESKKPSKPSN
Chain of CTX-M-14 (Q9L5C7 29-291, species assumed): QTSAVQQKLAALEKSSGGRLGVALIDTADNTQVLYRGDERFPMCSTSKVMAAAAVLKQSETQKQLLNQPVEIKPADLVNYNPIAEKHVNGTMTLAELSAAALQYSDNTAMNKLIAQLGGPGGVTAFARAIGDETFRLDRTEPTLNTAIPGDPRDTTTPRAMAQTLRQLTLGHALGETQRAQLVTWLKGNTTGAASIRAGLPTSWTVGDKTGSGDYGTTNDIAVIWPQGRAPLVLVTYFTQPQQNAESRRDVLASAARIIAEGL
Chain of SHV-12 (P0AD64 22-286 L31Q/G234S/E235K): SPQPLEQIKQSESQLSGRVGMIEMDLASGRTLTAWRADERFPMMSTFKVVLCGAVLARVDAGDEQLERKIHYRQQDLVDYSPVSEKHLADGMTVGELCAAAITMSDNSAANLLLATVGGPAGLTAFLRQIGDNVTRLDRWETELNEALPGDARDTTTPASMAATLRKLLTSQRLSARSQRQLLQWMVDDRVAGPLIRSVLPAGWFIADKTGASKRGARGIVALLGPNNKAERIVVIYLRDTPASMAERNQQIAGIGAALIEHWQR

Take `COc1ccc2c(c1C(=O)O)OB(O)C1C2[C@H]2C=C[C@@H]1C2` (stereo partly drawn) [Compound 6, (7R,10R)-6-hydroxy-3-methoxy-6a,7,10,10a-tetrahydro-6H-7,10-methanodibenzo[c,e][1,2]oxaborinine-4-carboxylic acid]: the inhibitory constant (Ki) at CTX-M-14 was greater than 1000 nM; at SHV-12, 100 to 1000 nM; at KPC-2, less than 100 nM; at P99 it was less than 100 nM; on Pa-AmpC, less than 100 nM; on OXA-48 it was less than 100 nM. Besides, the Ki on OXA-23 was 100 to 1000 nM; at VIM-1 it was 100 to 1000 nM; at NDM-1, greater than 1000 nM; on IMP-1 it was greater than 1000 nM.
As for `COc1ccc2c(c1C(=O)O)OB(O)C1C2[C@H]2CC[C@@H]1C2` (stereo partly drawn) [Compound 7, (7R,10S)-6-hydroxy-3-methoxy-6a,7,8,9,10,10a-hexahydro-6H-7,10-methanodibenzo[c,e][1,2]oxaborinine-4-carboxylic acid], the inhibitory constant (Ki) at CTX-M-14 is less than 100 nM; on SHV-12, 100 to 1000 nM; on KPC-2, less than 100 nM; at P99 it was less than 100 nM; at Pa-AmpC, less than 100 nM; at OXA-48, less than 100 nM. Further, the inhibitory constant (Ki) at OXA-23, at VIM-1, at NDM-1 and on IMP-1 was less than 100 nM throughout.
Consider `O=C(O)c1cccc2c1OB(O)C1CC21` (stereo not drawn) [Compound 10, 2-Hydroxy-1a,7b-dihydro-1H-cyclopropa[c][1,2]benzoxaborinine-4-carboxylic acid], for which the inhibition constant Ki at CTX-M-14, at SHV-12, at KPC-2, on P99, at Pa-AmpC and at OXA-48 was less than 100 nM in each case. Besides, the inhibitory constant (Ki) was less than 100 nM on OXA-23, less than 100 nM on VIM-1, less than 100 nM on NDM-1 and 100 to 1000 nM at IMP-1.
On to `COc1ccc2c(c1C(=O)O)OB(O)CC21CC1` [Compound 11, 2-hydroxy-7-methoxy-spiro[3H-1,2-benzoxaborinine-4,1′-cyclopropane]-8-carboxylic acid], for which the inhibitory constant (Ki) on CTX-M-14, at SHV-12, on KPC-2, on P99, at Pa-AmpC and on OXA-48 was less than 100 nM in each case. Besides, the inhibitory constant (Ki) at OXA-23 is less than 100 nM; at VIM-1 it was 100 to 1000 nM; on NDM-1, less than 100 nM; at IMP-1 it was 100 to 1000 nM.
As for `O=C(O)c1c(F)ccc2c1OB(O)[C@H]1C[C@@H]21` [Compound 12, (1aS,7bR)-5-fluoro-2-hydroxy-1a,7b-dihydro-1H-cyclopropa[c][1,2]benzoxaborinine-4-carboxylic acid], the Ki at CTX-M-14 was less than 100 nM; on SHV-12, less than 100 nM; at KPC-2 it was less than 100 nM; at P99, less than 100 nM; on Pa-AmpC, 100 to 1000 nM; at OXA-48, less than 100 nM. Besides, the inhibition constant Ki was less than 100 nM at OXA-23, greater than 1000 nM on VIM-1 and greater than 1000 nM on IMP-1. Moreover, the “PAM1032/KPC-2 Biapenem MPC64” value in data set [1] stood at 2.5. Besides, the “PAM1154/KPC-2 Biapenem MPC64” value in [2] came to 1.25.
Regarding `CC(=O)OCC(=O)OCOC(=O)c1c(F)ccc2c1OB(O)[C@@H]1C[C@H]21` [Compound 42, (2-Acetoxyacetyl)oxymethyl (1aR,7bS)-5-fluoro-2-hydroxy-1a,7b-dihydro-1H-cyclopropa[c][1,2]benzoxaborinine-4-carboxylate], in [3], the “% of initial area ratio at t = 0 min” value amounted to 100%, the “% of initial area ratio at t = 5 min” value is given as 29.1%, the “% of initial area ratio at t = 10 min” value came to 8.1% and the “% of initial area ratio at t = 30 min” value was 0%. For the same compound, in [4], the “Average % of initial area ratio at t = 0 min” value was 100%, the “Average % of initial area ratio at t = 5 min” value turned out to be 27.1%, the “Average % of initial area ratio at t = 10 min” value is 10.3% and the “Average % of initial area ratio at t = 30 min” value is reported as 0.4%. Further, the half-life at 1 μM in [4] is 4 min.
Take `COCC(=O)OCOC(=O)c1c(F)ccc2c1OB(O)[C@@H]1C[C@H]21` [Compound 43, (2-Methoxyacetyl)oxymethyl (1aR,7bS)-5-fluoro-2-hydroxy-1a,7b-dihydro-1H-cyclopropa[c][1,2]benzoxaborinine-4-carboxylate]: in [3], the “% of initial area ratio at t = 0 min” value was 100%, the “% of initial area ratio at t = 5 min” value is given as 58.6%, the “% of initial area ratio at t = 10 min” value is listed as 34.5% and the “% of initial area ratio at t = 30 min” value is recorded as 2.9%. In data set [4], the “Average % of initial area ratio at t = 0 min” value was 100%, the “Average % of initial area ratio at t = 5 min” value is on record as 64.4%, the “Average % of initial area ratio at t = 10 min” value is given as 44.6% and the “Average % of initial area ratio at t = 30 min” value is listed as 0.6%. Besides, the half-life at 1 μM in data set [4] was 4 min.
